Measured values as given in patent US20260070929A1, “METHODS AND COMPOSITIONS FOR MODULATING KRAS(G12D)” (Ranok Therapeutics (Hangzhou) Co. LTD., priority 2022, published 2026).

Assays:
[1] = test system: AGS gastric carcinoma cells [heterozygous G12D]; test: Cancer cell line proliferation (CellTiter-Glo), AGS; assay type: cell-based; settings: Homo sapiens, 72 hr treatment, read-out: AGS CTG (EC50)
Method in brief: (§1)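 4,000 cells/well; 72 hr pre-culture, 37° C./5% CO2. Cpd: 3-fold series, 20 μM–1.02 nM as prepared, 0.5% DMSO final; 72 hr exposure. Readout CellTiter-Glo; EC50 fit.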

[2] = test system: SW1990 pancreatic adenocarcinoma cells [homozygous G12D]; test: Cancer cell line proliferation (CellTiter-Glo), SW1990; assay type: cell-based; settings: Homo sapiens, 72 hr treatment, read-out: SW1990 CTG (EC50)
Protocol: The following cancer cell lines were employed: AGS gastric carcinoma [heterozygous G12D](ATCC, CRL-1739); A-427 lung carcinoma [heterozygous G12D](ATCC, HTB-53); ASPC1 pancreatic adenocarcinoma [homozygous G12D](ATCC, CRL-1682) and SW1990 pancreatic adenocarcinoma [homozygous G12D](ATCC CRL-2172). Cell lines were cultured essentially according to ATCC recommendations.
AGS, A-427, ASPC1, SW1990, and GP2D cells were plated in 96-well tissue culture plates at 4,000 cells/well and incubated at 37° C./5% CO2 for 72 hr in 100 μl of media. 3-fold serial dilutions of each test compound were prepared ranging from 20 μM to 1.02 nM. Each cell line was then treated with test compounds at various concentrations with a final concentration of 0.5% DMSO/well, and then incubated at 37° C./5% CO2 for 72 hr. 100 µl of CellTiter-Glo® Reagent (Promega Corporation, Madison, WI) was added to each well and processed according manufacturer's protocol. Results were analyzed and EC50 values were calculated in GraphPad 7 software.

KRAS(G12D)/SOS1 = target: T1, KRAS(G12D)/SOS1 (Homo sapiens, UniProt P01116, G12D); test: KRAS(G12D)/SOS1 homogeneous time-resolved fluorescence (HTRF) assay; assay type: binding; settings: absence of GTP; 4° C., 3 hr
T1 construct: purchased Cisbio 63ADK000CB17PEH
T1 sequence (P01116 1-188 isoform P01116-2 G12D): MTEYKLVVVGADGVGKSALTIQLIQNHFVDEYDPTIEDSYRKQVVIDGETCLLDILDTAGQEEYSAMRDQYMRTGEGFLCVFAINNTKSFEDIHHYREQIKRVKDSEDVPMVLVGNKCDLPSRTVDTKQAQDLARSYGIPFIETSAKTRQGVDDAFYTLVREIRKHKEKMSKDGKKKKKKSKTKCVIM
Method in brief: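 Disruption of the KRAS(G12D)/SOS1 pairing, in the absence of GTP, was read by time-resolved FRET after a 3 hr sealed incubation at 4 °C. Test compounds spanned 20 µM down to 1.02 nM in 3-fold steps. IC50 values correspond to half-maximal inhibition.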

[3] = test system: ASPC1 pancreatic adenocarcinoma cells [homozygous G12D]; test: Cancer cell line proliferation (CellTiter-Glo), ASPC1; assay type: cell-based; settings: Homo sapiens, ASPC1, 72 h, 72 hr treatment, read-out: ASPC-1 CTG (EC50)
Method in brief: as §1

[4] = test system: A-427 lung carcinoma cells [heterozygous G12D]; test: Cancer cell line proliferation (CellTiter-Glo), A-427; assay type: cell-based; settings: Homo sapiens, A-427 cells, 72 hr treatment, read-out: A427 CTG (EC50)
Method in brief: as §1

SMILES | EC50 [1] | EC50 [2] | IC50 (KRAS(G12D)/SOS1) | EC50 [3] | EC50 [4]
C#Cc1cccc2cc(O)cc(-c3ncc4c(N5CC6CCC(C5)N6)nc(OCC5(CN6CCN(CC7CCN(Cc8ccc(-n9c(C(=O)NCC)nnc9-c9cc(C(C)C)c(OC)cc9OC)cc8)CC7)CC6)CC5)nc4c3F)c12 [Compound 195] | 100 to 1000 nM | 100 to 1000 nM | – | – | –
C#Cc1c(F)ccc2cc(O)cc(-c3ncc4c(N5CC6CCC(C5)N6)nc(OCC5(CN6CCC(N7CCN(Cc8ccc(-n9c(C(=O)NC(C)C(F)(F)F)nnc9-c9cc(C(C)C)c(O)cc9O)cc8)CC7)CC6)CC5)nc4c3F)c12 (centres unmarked) [Compound 181] | < 100 nM | < 100 nM | < 100 nM | – | –
C#Cc1c(F)ccc2cc(O)cc(-c3ncc4c(N5CC6CCC(C5)N6)nc(OCC5(CN6CCC(C7CCN(Cc8ccc9c(c8)CN(C(=O)c8cc(C(C)C)c(OC)cc8OC)C9)CC7)CC6)CC5)nc4c3F)c12 [Compound 199] | 100 to 1000 nM | 100 to 1000 nM | – | – | –
C#Cc1c(F)ccc2cc(O)cc(-c3ncc4c(N5CC6CCC(C5)N6)nc(OCC5(CN6CC(N7CCN(Cc8ccc9c(c8)CN(C(=O)c8cc(C(C)C)c(O)cc8O)C9)CC7)C6)CC5)nc4c3F)c12 [Compound 202] | 100 to 1000 nM | 100 to 1000 nM | – | – | –
C#Cc1c(F)ccc2cc(O)cc(-c3ncc4c(N5CC6CCC(C5)N6)nc(OCC5CN(Cc6ccc(-n7c(C(=O)NC(C)C(F)(F)F)nnc7-c7cc(C(C)C)c(O)cc7O)cc6)C5)nc4c3F)c12 (centres unmarked) [Compound 174] | 100 to 1000 nM | > 1000 nM | < 100 nM | – | –
C#Cc1c(F)ccc2cc(O)cc(-c3nc(OC)c4c(N5CC6CNC(C6)C5)nc(OCC5(CN6CCN(Cc7ccc(-n8c(C(=O)NCC)nnc8-c8cc(C(C)C)c(O)cc8O)cc7)CC6)CC5)nc4c3F)c12 (centres unmarked) [Compound 189] | < 100 nM | < 100 nM | < 100 nM | – | –
C#Cc1c(F)ccc2cc(O)cc(-c3ncc4c(N5CC6CNC(C6)C5)nc(OCC5(CN6CCC(C7CCN(Cc8ccc(-n9c(C(=O)NC(C)C(F)(F)F)nnc9-c9cc(C(C)C)c(O)cc9O)cc8)CC7)CC6)CC5)nc4c3F)c12 (centres unmarked) [Compound 185] | 100 to 1000 nM | 100 to 1000 nM | 100 to 1000 nM | – | –
C#Cc1c(F)ccc2cc(O)cc(-c3nc(OC)c4c(N5CC6CCC(C5)N6)nc(OCC5(CN6CCC(C7CCN(Cc8ccc9c(c8)CN(C(=O)c8cc(C(C)C)c(O)cc8O)C9)CC7)CC6)CC5)nc4c3F)c12 [Compound 186] | < 100 nM | < 100 nM | < 100 nM | – | –
C#Cc1c(F)ccc2cc(O)cc(-c3ncc4c(N5CC6CCC(C5)N6)nc(OCC5CN(CC6(CNc7ccc8c(c7)CN(C(=O)c7cc(C(C)C)c(O)cc7O)C8)CC6)C5)nc4c3F)c12 [Compound 194] | 100 to 1000 nM | 100 to 1000 nM | < 100 nM | – | –
C#Cc1c(F)ccc2cc(O)cc(-c3ncc4c(N5CC6CCC(C5)N6)nc(OCC5(CN6CCN(C7CN(Cc8ccc(-n9c(C(=O)NC(C)C(F)(F)F)nnc9-c9cc(C(C)C)c(O)cc9O)cc8)C7)CC6)CC5)nc4c3F)c12 (centres unmarked) [Compound 167] | < 100 nM | < 100 nM | < 100 nM | – | –
C#Cc1c(F)ccc2cc(O)cc(-c3ncc4c(N5CC6CCC(C5)N6)nc(OCC5CN(Cc6ccc(-n7c(C(=O)NCC(F)(F)F)nnc7-c7cc(C(C)C)c(O)cc7O)cc6)C5)nc4c3F)c12 [Compound 175] | 100 to 1000 nM | 100 to 1000 nM | < 100 nM | – | –
C#Cc1c(F)ccc2cc(O)cc(-c3ncc4c(N5CC6CNC(C6)C5)nc(OCC5(CN6CCN(C7CCN(Cc8ccc(-n9c(C(=O)NC(C)C(F)(F)F)nnc9-c9cc(C(C)C)c(O)cc9O)cc8)CC7)CC6)CC5)nc4c3F)c12 (centres unmarked) [Compound 188] | 100 to 1000 nM | 100 to 1000 nM | 100 to 1000 nM | – | –
C#Cc1c(F)ccc2cc(O)cc(-c3nc(OC)c4c(N5CC6CCC(C5)N6)nc(OCC5(CN6CCN(CC7CCN(Cc8ccc(-n9c(C(=O)NCC)nnc9-c9cc(C(C)C)c(O)cc9O)cc8)CC7)CC6)CC5)nc4c3F)c12 [Compound 169] | < 100 nM | < 100 nM | < 100 nM | – | –
C#Cc1c(F)ccc2cc(O)cc(-c3ncc4c(N5CC6CCC(C5)N6)nc(OC5CN(Cc6ccc(-n7c(C(=O)NC(C)C(F)(F)F)nnc7-c7cc(C(C)C)c(O)cc7O)cc6)C5)nc4c3F)c12 (centres unmarked) [Compound 176] | 100 to 1000 nM | > 1000 nM | 100 to 1000 nM | – | –
C#Cc1c(F)ccc2cc(O)cc(-c3ncc4c(N5CC6CCC(C5)N6)nc(OCc5ccc6c(c5)CN(C(=O)c5cc(C(C)C)c(O)cc5O)C6)nc4c3F)c12 [Compound 173] | 100 to 1000 nM | > 1000 nM | 100 to 1000 nM | – | –
C#Cc1c(F)ccc2cc(O)cc(-c3ncc4c(N5CC6CCC(C5)N6)nc(OC5CN(Cc6ccc(-n7c(C(=O)NCC(F)(F)F)nnc7-c7cc(C(C)C)c(O)cc7O)cc6)C5)nc4c3F)c12 [Compound 179] | 100 to 1000 nM | > 1000 nM | 100 to 1000 nM | – | –
C#Cc1c(F)ccc2cc(O)cc(-c3ncc4c(N5CC6CCC(C5)N6)nc(OCC5(CN6CC(N7CCN(Cc8ccc(-n9c(C(=O)NC(C)C(F)(F)F)nnc9-c9cc(C(C)C)c(O)cc9O)cc8)CC7)C6)CC5)nc4c3F)c12 (centres unmarked) [Compound 203] | – | < 100 nM | – | – | –
C#Cc1c(F)ccc2cc(O)cc(-c3ncc4c(N5CC6CCC(C5)N6)nc(OCC5(CN6CCC(N7CCN(Cc8ccc9c(c8)CN(C(=O)c8cc(C(C)C)c(O)cc8O)C9)CC7)CC6)CC5)nc4c3F)c12 [Compound 180] | < 100 nM | < 100 nM | < 100 nM | – | –
C#Cc1cccc2cc(O)cc(-c3ncc4c(N5CC6CNC(C6)C5)nc(OCC5(CN6CCN(CC7CCN(Cc8ccc(-n9c(C(=O)NCC)nnc9-c9cc(C(C)C)c(O)cc9O)cc8)CC7)CC6)CC5)nc4c3F)c12 (centres unmarked) [Compound 197] | < 100 nM | 100 to 1000 nM | – | – | –
C#Cc1c(F)ccc2cc(O)cc(-c3ncc4c(N5CC6CCC(C5)N6)nc(OCC5(CN6CCN(C7CCN(Cc8ccc(-n9c(C(=O)NC(C)C(F)(F)F)nnc9-c9cc(C(C)C)c(OC)cc9OC)cc8)CC7)CC6)CC5)nc4c3F)c12 (centres unmarked) [Compound 200] | 100 to 1000 nM | > 1000 nM | – | – | –
C#Cc1c(F)ccc2cc(O)cc(-c3ncc4c(N5CC6CCC(C5)N6)nc(OC[C@H]5CCCN5Cc5ccc6c(c5)CN(C(=O)c5cc(C(C)C)c(O)cc5O)C6)nc4c3F)c12 [Compound 204] | 100 to 1000 nM | > 1000 nM | – | – | –
C#Cc1cccc2cccc(-c3ncc4c(N5CC6CCC(C5)N6)nc(OCC5(CN6CCN(Cc7ccc8c(c7)CN(C(=O)c7cc(C(C)C)c(O)cc7O)C8)CC6)CC5)nc4c3F)c12 [Compound 11] | 100 to 1000 nM | – | < 100 nM | 100 to 1000 nM | 100 to 1000 nM
CCNC(=O)c1nnc(-c2cc(C(C)C)c(O)cc2O)n1-c1ccc(CN2CCC(C(=O)N3CCN([C@H]4C[C@@H](COc5nc(N6CC7CCC(C6)N7)c6cnc(-c7cccc8cccc(C)c78)c(F)c6n5)N(C)C4)CC3)CC2)cc1 [Compound 24] | < 100 nM | – | 100 to 1000 nM | 100 to 1000 nM | < 100 nM
CC(C)c1cc(-c2nnc(O)n2-c2ccc(CN(C)[C@@H]3CN4CCC[C@]4(COc4nc(N5CC6CCC(C5)N6)c5cnc(-c6cc(O)cc7ccccc67)c(F)c5n4)C3)cc2)c(O)cc1O [Compound 42] | > 1000 nM | – | < 100 nM | > 1000 nM | > 1000 nM
CC(C)c1cc(C(=O)N2Cc3ccc(CN4CCC(C(=O)N(C)[C@H]5CN6CCC[C@@]6(COc6nc(N7CC8CCC(C7)N8)c7cnc(-c8cc(O)cc9ccccc89)c(F)c7n6)C5)CC4)cc3C2)c(O)cc1O [Compound 49] | 100 to 1000 nM | – | < 100 nM | > 1000 nM | 100 to 1000 nM
CCNC(=O)c1nnc(-c2cc(C(C)C)c(O)cc2O)n1-c1ccc(CN2CCN([C@H]3C[C@@H](COc4nc(N5CC6CCC(C5)N6)c5cnc(-c6cccc(F)c6C)c(F)c5n4)N(C)C3)CC2)cc1 [Compound 62] | < 100 nM | – | > 1000 nM | 100 to 1000 nM | < 100 nM
CCNC(=O)c1nnc(-c2cc(C(C)C)c(O)cc2O)n1-c1ccc(CN(C)[C@@H]2CN3CCC[C@]3(COc3nc(N4CC5CCC(C4)N5)c4cnc(-c5cc(O)cc6ccccc56)c(F)c4n3)C2)cc1 [Compound 40] | 100 to 1000 nM | – | < 100 nM | > 1000 nM | 100 to 1000 nM
C#Cc1cccc2cccc(-c3ncc4c(N5CC6CCC(C5)N6)nc(OC[C@@H]5CC[C@H](CN6CCN(Cc7ccc(-n8c(O)nnc8-c8cc(C(C)C)c(O)cc8O)cc7)CC6)N5C)nc4c3F)c12 [Compound 15] | 100 to 1000 nM | – | < 100 nM | > 1000 nM | 100 to 1000 nM
